In PMC5312321, “A general strategy to optimize immunogenicity of HLA-B*0702 restricted cryptic peptides from tumor associated antigens: Design of universal neo-antigen like tumor vaccines for HLA-B*0702 positive patients” (Oncotarget, 2016):

How the values were obtained:
[1] = test system: CD8+ T cells from healthy donors; assay: In vitro induction of specific CTLs from PBMC of healthy HLA-B*0702 donors (IFNγ intracellular staining or ELISPOT); assay type: cell-based, human; conditions: for immunogenicity in vitro in human PBMC (in words): CD8+ T cells from healthy donors, four stimulations with peptide loaded autologous DC; for Immunogenicity against optimized peptide (number of positive culture/number of total cultures): human healthy donor PBMC stimulated with optimized peptide loaded DC, T2-B7 cells loaded with optimized peptide
Protocol: CD8+ T cells from healthy donors were in vitro stimulated with autologous dendritic cells loaded with each optimized cryptic peptide. After four stimulations, proliferating cells were tested for the presence of IFNγ producing CTLs upon stimulation with T2-B7 cells loaded with optimized or native peptides either by intracellular IFNγ staining or by IFNγ ELISPOT assay.
PBMC were collected by leukapheresis from healthy HLA-A*B702 volunteers. Dendritic cells (DC) were produced from adherent cells cultured with 500 IU/ml GM-CSF and 500 IU/ml IL-4, in complete synthetic medium (AIMV) for seven days. On day 7, DCs were pulsed with 10 μM of peptide during 2 hours and CD8^+ cells were purified by negative selection with CD8 Dynabeads Untouched Human CD8. CD8^+ cells (2 × 10^5) + CD8^− cells (6 × 10^4) were stimulated with 3 × 10^4 peptide-pulsed DC in AIMV medium supplemented with 1000 IU/ml IL-6 and 5 IU/ml IL-12 in round-bottomed 96-well plates.
From day 7, cultures were stimulated weekly with peptide-loaded DC in the presence of 20 IU/ml IL-2 and 10 ng/ml IL-7, 1 μg/ml anti-CD40 and 500 IU/ml IFNγ.
After the third stimulation, CD8 cells were maintained in AIMV supplemented with 20 IU/ml IL-2 during 7 days. Cultures were starved overnight with AIMV and then were tested in an intracellular IFNγ and an IFNγ ELISpot assay.
Stimulated T cells (10^5) from each pool were incubated with 2 × 10^5 T2 cells loaded with stimulating peptide in the presence of 20 μg/ml Brefeldin-A (Sigma, Oakville, Canada). Six hours later they were washed, stained with r-phycoerythrin-conjugated anti-CD8 antibody (Caltag Laboratories, Burlingame, CA, USA) in PBS for 25 min at 4°C, washed again, and fixed with 4% PFA. The cells were then permeabilized with PBS, 0.5% BSA, 0.2% saponin (Sigma, Oakville, Canada), and labelled with an allophycocyanin-conjugated anti-IFNγ mAb (PharMingen, Mississauga, Canada) for 25 min at 4°C before analysis with a FACSCalibur® flow cytometer.
Stimulated T cells were splited in four pools and IFNγ producing T cells was quantified in each pool by ELISpot using the Diaclone Kit Human IFNγ ELISpot (Besançon, France) according to manufacturer's recommendations. 250 000 cells were distributed per well and tested for the recognition of 10 μM of either the native or optimized peptide. Positive control was Concanavalin A and negative control was medium alone or an irrelevant peptide. All conditions were tested in sixplicates.

[2] = test system: HLA-B*0702 transgenic mice; assay: Vaccination of HLA-B*0702 transgenic mice; specific CTLs detected by cytotoxicity or IFNγ ELISPOT; assay type: in vivo, mouse
Protocol: The HLA-B7 H-2 class-I knockout mice were previously described.
Mice were injected subcutaneously with 100 μg of peptide emulsified in Incomplete Freund's Adjuvant (IFA) in the presence of 150 μg of the I-A^b restricted HBVcore128 T helper epitope ([…]) twice at two weeks interval.
A particular protocol was applied for MAGE-A 274L9, with two injections of this peptide at two weeks interval and 15 days later one injection with each one of the native peptide.
On day 6 of culture the bulk responder populations were tested for specific cytotoxicity. […] Percentage of specific lysis was determined as: % Lysis = (Experimental Release-Spontaneous Release) / (Maximal Release-Spontaneous Release) × 100. Spontaneous release is obtained using medium only, maximum release with HCl 0.1 M.
Seven days after the last vaccination, spleens were removed and T cells were isolated by Ficoll centrifugation and tested ex vivo for the recognition of 10 μM of either the native or optimized peptide. IFNγ producing T cells were quantified by ELISpot using the Diaclone Kit Murine IFNγ ELISpot (Besançon, France) according to manufacturer's recommendations. 250 000 spleen T cells were distributed per well and tested for the recognition of 10 μM of either the native or optimized peptide. Positive control was Concanavalin A and negative control was medium alone. All conditions were tested in sixplicates.

HLA-B*0702 = molecular target: T1, HLA-B*0702 (Homo sapiens, UniProt P01889); assay: Measurement of peptide relative affinity to HLA-B*0702 (surface expression on T2-B7 cells); assay type: cell-based
T1 construct: expressed in transfected cells; host or cells: human T2-B7 cells (T2 transfected with HLA-B*0702)
Protocol: The protocol used has been described previously. Briefly, T2-B7 cells were incubated at 37°C for 16 hours with peptides concentrations ranging from 100 μM to 0.1 μM (100 μM, 10 μM, 1 μM and 0.1μM), and then stained with ME-1 monoclonal antibody (mAb) to quantify the surface expression of HLA-B*0702. For each peptide concentration, the HLA-B*0702 specific staining was calculated as the percentage of staining obtained with 100 μM of the reference peptide CMV265–274 (R10V; […], SEQ ID NO: 9). The relative affinity (RA) was determined as: RA = (Concentration of each peptide that induces 20% of HLA-B*0702-expression/Concentration of the reference R10V peptide that induces 20% of HLA-B*0702 expression). In case of non-binders peptide, RA is not evaluable since the 20% of HLA-B*0702 expression is not reach even with the highest concentration of peptide.

| Sequence | immunogenicity in vitro in human PBMC (in words) [1] | cross recognition of native peptide by human CTLs induced by the optimized peptide (in words) ([1]; T2-B7 cells loaded with optimized or native peptides, IFNγ staining or ELISPOT) | Immunogenicity against native peptide MAGE-A1_269 (positive culture/total cultures) ([1]; human PBMC stimulated with optimized peptide, targets loaded with MAGE-A1_269 as printed) | Immunogenicity against native peptide MAGE-A2_274 (positive culture/total cultures) ([1]; human PBMC stimulated with optimized peptide, targets loaded with MAGE-A2_274) | Immunogenicity against native peptide MAGE-A3_274 (positive culture/total cultures) ([1]; human PBMC stimulated with optimized peptide, targets loaded with MAGE-A3_274) | Immunogenicity against optimized peptide (number of positive culture/number of total cultures) [1] | cross recognition of the native peptide by CTLs induced by the optimized peptide in mice (in words) ([2]; HLA-B*0702 transgenic mice, target cells loaded with native peptide) | (Number of spots – background)/10^6 cells ([2]; IFNγ ELISpot, Figure 3, value printed in the picture, mouse vaccinated twice at two weeks interval, statistically significant (*)) | Immunogenicity against optimized peptide (responding mice/vaccinated mice) ([2]; mice vaccinated twice with the optimized peptide, cytotoxicity or IFNγ ELISPOT against target cells loaded with the optimized peptide) | Immunogenicity against native peptide MAGE-A1_267 (responding mice/vaccinated mice) ([2]; mice vaccinated with optimized peptide, target cells loaded with MAGE-A1_267) | Immunogenicity against native peptide MAGE-A2_274 (responding mice/vaccinated mice) ([2]; mice vaccinated with optimized peptide, target cells loaded with MAGE-A2_274) | Immunogenicity against native peptide MAGE-A3_274 (responding mice/vaccinated mice) ([2]; mice vaccinated with optimized peptide, target cells loaded with MAGE-A3_274) | immunogenicity in HLA-B*0702 transgenic mice (in words) ([2]; specific CTL induction after vaccination, cytotoxicity (ratio 30/1) or IFNγ ELISpot) | Immunogenicity against native peptide (number of positive culture/number of total cultures) ([1]; human healthy donor PBMC stimulated with optimized peptide, T2-B7 cells loaded with corresponding native peptide) | RA (Relative Affinity) (HLA-B*0702; 37°C 16 hours, peptide 100 μM to 0.1 μM, ME-1 mAb staining, RA = concentration inducing 20% of HLA-B*0702 expression / that of reference R10V, mean ± SD, at least three experiments, ≥ 10 = 10 or not measurable, SD) | binding to / affinity for HLA-B*0702 (in words) (HLA-B*0702; relative to reference peptide R10V) |
| --- | --- | --- | --- | --- | --- | --- | --- | --- | --- | --- | --- | --- | --- | --- | --- | --- |
| GPRALVETL [MAGE-A274 L9, optimized peptide derived from MAGE-A3_274, leucine at position 9] | confirmed | cross recognition of MAGE-A3_274 and MAGE-A2_274 was confirmed but not for MAGE-A1_267 | 0/4 | 2/4 | 2/4 | 2/4 | able to recognize target cells loaded with MAGE-A3_274 but also MAGE-A1_267 and MAGE-A2_274 | 3023 /10^6 cells | 18/18 | 3/8 | 3/5 | 4/5 | immunogenic | – | – | – |
| APRRLVQLL [TERT444A1, optimized TERT444, alanine at position 1] | confirmed | – | – | – | – | 1/2 | – | – | – | – | – | – | – | 2/2 | 1.4 ± 0.83 | high HLA-B*0702 affinity |
